Data from US20250114460A1, “NOVEL PLK1 DEGRADATION INDUCING COMPOUND” (UPPTHERA, INC., priority 2021, published 2025).

What was measured:
Format in all cases: cell-based
MRC-5 cell line = test: Cell viability assay for MRC-5 cell line (EZ-Cytox); details: Homo sapiens, MRC5, 120 h; MRC-5 normal cell line, 5 days, 10000 nM to 1.52 nM; N.D. = no cytotoxicity until 10 μM; read-out: Activity: IC50 value of Exemplary Compound to MRC-5 cell line
Description: 4. Cell Viability Assay for MRC-5 Cell Line
(1) Culture of MRC-5 Cell Line
Passage of cultured cells was maintained within P15.
(2) Treatment of Compounds of the Present Invention
Then, it was cultured in 37° C.
(3) Cytotoxicity Experiment
CO2 incubator for 4 hours.

NCI-H526 cell line = test: Cell viability assay for H526 cell (EZ-Cytox); details: Homo sapiens, NCI-H526, 120 h; H526 cells, 5 days, 3000 nM to 0.46 nM
In short: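 Read-out was EZ-Cytox colorimetric absorbance at 450 nm, taken after brief plate shaking, with IC50 derived. Before reading, H526 cells had been cultured with test compound for 5 days.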

PLK1 = biological target: T1, PLK1 (Homo sapiens, UniProt P53350); test: Luciferase assay for PLK1 in HeLa LgBit (Plk1-HiBit KI) cell line; details: 300 nM compound, luminescence after 9 hours
T1 construct: endogenous in cells; host or cells: HeLa LgBit (Plk1-HiBit KI): HeLa stably expressing LgBit, with a CRISPR/Cas9 knock-in of HiBit at the endogenous PLK1 locus
In short: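 Luminescence, followed in real time after adding compound at 300 nM and Endurazine substrate, is reported relative to DMSO-treated wells. Cells are a HeLa LgBit line with a Plk1-HiBit knock-in, synchronized by 2 mM thymidine for 24 h, released, and cultured 18 h before treatment.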

T1 sequence (P53350 whole entry): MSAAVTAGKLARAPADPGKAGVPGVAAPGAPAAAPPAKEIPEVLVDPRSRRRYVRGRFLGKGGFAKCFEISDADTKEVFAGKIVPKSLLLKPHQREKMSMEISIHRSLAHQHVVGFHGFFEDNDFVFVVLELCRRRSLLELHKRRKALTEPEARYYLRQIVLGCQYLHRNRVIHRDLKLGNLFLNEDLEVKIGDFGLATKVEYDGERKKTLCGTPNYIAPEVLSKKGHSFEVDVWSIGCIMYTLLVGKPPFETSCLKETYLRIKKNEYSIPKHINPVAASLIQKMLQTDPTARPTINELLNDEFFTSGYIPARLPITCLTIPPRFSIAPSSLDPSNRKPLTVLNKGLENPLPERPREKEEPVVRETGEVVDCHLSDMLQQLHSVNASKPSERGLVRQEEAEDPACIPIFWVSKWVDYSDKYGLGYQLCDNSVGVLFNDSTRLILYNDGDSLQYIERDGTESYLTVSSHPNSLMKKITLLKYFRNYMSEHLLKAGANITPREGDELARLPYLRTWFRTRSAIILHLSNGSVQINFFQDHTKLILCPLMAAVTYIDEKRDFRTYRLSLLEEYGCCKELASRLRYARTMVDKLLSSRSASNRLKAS

`COc1cc(C(=O)NC2CC3(CCN(CC4CCN(c5cccc6c5C(=O)N(C5CCC(=O)NC5=O)C6=O)CC4)CC3)C2)ccc1Nc1ncc2c(n1)N(C1CCCC1)CC(F)(F)C(=O)N2C` (stereo not drawn) [Compound 136, 4-((9-cyclopentyl-7,7-difluoro-5-methyl-6-oxo-6,7,8,9-tetrahydro-5H-pyrimido[4,5-b][1,4]diazepin-2-yl)amino)-N-(7-((1-(2-(2,6-dioxopiperidin-3-yl)-1,3-dioxoisoindolin-4-yl)piperidin-4-yl)methyl)-7-azaspiro[3.5]nonan-2-yl)-3-methoxybenzamide] was tested, and the IC50 (MRC-5 cell line) was 6.52 µM, the IC50 (NCI-H526 cell line) was < 0.03 µM and the “Activity: ratio of the luminescense value of each Exemplary Compound treatment group to DMSO treatment group” value (from here on “Activity: ratio”) (PLK1) was “+++ (+++: <0.3)”.

In the case of `COc1cc(C(=O)NC2CC3(CCN(CC4CCN(c5ccc6c(c5)C(=O)N(C5CCC(=O)NC5=O)C6=O)CC4)CC3)C2)ccc1Nc1ncc2c(n1)N(C1CCCC1)CC(F)(F)C(=O)N2C` (stereo not drawn) [Compound 137, 4-((9-cyclopentyl-7,7-difluoro-5-methyl-6-oxo-6,7,8,9-tetrahydro-5H-pyrimido[4,5-b][1,4]diazepin-2-yl)amino)-N-(7-((1-(2-(2,6-dioxopiperidin-3-yl)-1,3-dioxoisoindolin-5-yl)piperidin-4-yl)methyl)-7-azaspiro[3.5]nonan-2-yl)-3-methoxybenzamide], the IC50 (MRC-5 cell line) is reported as 16.9 µM, the IC50 (NCI-H526 cell line) is reported as < 0.03 µM and the “Activity: ratio” value (PLK1) is reported as “++ (++<0.6)”.

For `COc1cc(C(=O)NC2CN(CC3CCN(c4cccc5c4C(=O)N(C4CCC(=O)NC4=O)C5=O)CC3)C2)ccc1Nc1ncc2c(n1)N(C1CCCC1)CC(F)(F)C(=O)N2C` (stereo not drawn) [Compound 138, 4-((9-cyclopentyl-7,7-difluoro-5-methyl-6-oxo-6,7,8,9-tetrahydro-5H-pyrimido[4,5-b][1,4]diazepin-2-yl)amino)-N-(1-((1-(2-(2,6-dioxopiperidin-3-yl)-1,3-dioxoisoindolin-4-yl)piperidin-4-yl)methyl)azetidin-3-yl)-3-methoxybenzamide], the IC50 (MRC-5 cell line) was > 10 µM, the IC50 (NCI-H526 cell line) was < 0.05 µM and the “Activity: ratio” value (PLK1) was “++ (++<0.6)”.

With `COc1cc(C(=O)NC2CN(CC3CCN(c4ccc5c(c4)C(=O)N(C4CCC(=O)NC4=O)C5=O)CC3)C2)ccc1Nc1ncc2c(n1)N(C1CCCC1)CC(F)(F)C(=O)N2C` (stereo not drawn) [Compound 139, 4-((9-cyclopentyl-7,7-difluoro-5-methyl-6-oxo-6,7,8,9-tetrahydro-5H-pyrimido[4,5-b][1,4]diazepin-2-yl)amino)-N-(1-((1-(2-(2,6-dioxopiperidin-3-yl)-1,3-dioxoisoindolin-5-yl)piperidin-4-yl)methyl)azetidin-3-yl)-3-methoxybenzamide] the IC50 (MRC-5 cell line) was > 10 µM, the IC50 (NCI-H526 cell line) was < 0.05 µM and the “Activity: ratio” value (PLK1) was “++ (++<0.6)”.

With `COc1cc(C(=O)NC2CCN(C(=O)CCN3CCN(c4ccc(F)c5c4C(=O)N(C4CCC(=O)NC4=O)C5=O)CC3)CC2)ccc1Nc1ncc2c(n1)N(C1CCCC1)CC(F)(F)C(=O)N2C` (stereo not drawn) [Compound 142, 4-((9-cyclopentyl-7,7-difluoro-5-methyl-6-oxo-6,7,8,9-tetrahydro-5H-pyrimido[4,5-b][1,4]diazepin-2-yl)amino)-N-(1-(3-(4-(2-(2,6-dioxopiperidin-3-yl)-7-fluoro-1,3-dioxoisoindolin-4-yl)piperazin-1-yl)propanoyl)piperidin-4-yl)-3-methoxybenzamide] the IC50 (MRC-5 cell line) was > 10 µM, the IC50 (NCI-H526 cell line) was < 0.1 µM and the “Activity: ratio” value (PLK1) was “++ (++<0.6)”.
